Data on three compounds can be found in ChEMBL document CHEMBL5625190, “Novel fused imidazotriazines acting as promising top. II inhibitors and apoptotic inducers with greater selectivity against head and neck tumors: Design, synthesis, and biological assessments” (Eur J Med Chem, 2023).

Test [1] has as its target T1, DNA topoisomerase 2-alpha (Homo sapiens, UniProt P11388). The test can be described thus: Inhibition of human DNA topoisomerase 2alpha using supercoiled pHot1 DNA as substrate incubated for 30 mins.
A further test deals with Calf thymus DNA. The test can be described thus: Displacement of methyl green from calf thymus DNA assessed as DNA intercalation measured after 24 hrs. The test is classed as nucleic-acid assay, Bos taurus.
Test [2] has as its target T1, DNA topoisomerase 2-alpha. The test can be described thus: Inhibition of human DNA topoisomerase 2alpha.
In a further test the test system is HL-60. The test can be described thus: Antiproliferative activity against human HL-60 cells. The test is classed as functional, cell-based.

As usually defined, the IC50 is the point on the concentration scale where inhibition reaches its midpoint.

Structures are written as SMILES.

T1 sequence (P11388 whole entry): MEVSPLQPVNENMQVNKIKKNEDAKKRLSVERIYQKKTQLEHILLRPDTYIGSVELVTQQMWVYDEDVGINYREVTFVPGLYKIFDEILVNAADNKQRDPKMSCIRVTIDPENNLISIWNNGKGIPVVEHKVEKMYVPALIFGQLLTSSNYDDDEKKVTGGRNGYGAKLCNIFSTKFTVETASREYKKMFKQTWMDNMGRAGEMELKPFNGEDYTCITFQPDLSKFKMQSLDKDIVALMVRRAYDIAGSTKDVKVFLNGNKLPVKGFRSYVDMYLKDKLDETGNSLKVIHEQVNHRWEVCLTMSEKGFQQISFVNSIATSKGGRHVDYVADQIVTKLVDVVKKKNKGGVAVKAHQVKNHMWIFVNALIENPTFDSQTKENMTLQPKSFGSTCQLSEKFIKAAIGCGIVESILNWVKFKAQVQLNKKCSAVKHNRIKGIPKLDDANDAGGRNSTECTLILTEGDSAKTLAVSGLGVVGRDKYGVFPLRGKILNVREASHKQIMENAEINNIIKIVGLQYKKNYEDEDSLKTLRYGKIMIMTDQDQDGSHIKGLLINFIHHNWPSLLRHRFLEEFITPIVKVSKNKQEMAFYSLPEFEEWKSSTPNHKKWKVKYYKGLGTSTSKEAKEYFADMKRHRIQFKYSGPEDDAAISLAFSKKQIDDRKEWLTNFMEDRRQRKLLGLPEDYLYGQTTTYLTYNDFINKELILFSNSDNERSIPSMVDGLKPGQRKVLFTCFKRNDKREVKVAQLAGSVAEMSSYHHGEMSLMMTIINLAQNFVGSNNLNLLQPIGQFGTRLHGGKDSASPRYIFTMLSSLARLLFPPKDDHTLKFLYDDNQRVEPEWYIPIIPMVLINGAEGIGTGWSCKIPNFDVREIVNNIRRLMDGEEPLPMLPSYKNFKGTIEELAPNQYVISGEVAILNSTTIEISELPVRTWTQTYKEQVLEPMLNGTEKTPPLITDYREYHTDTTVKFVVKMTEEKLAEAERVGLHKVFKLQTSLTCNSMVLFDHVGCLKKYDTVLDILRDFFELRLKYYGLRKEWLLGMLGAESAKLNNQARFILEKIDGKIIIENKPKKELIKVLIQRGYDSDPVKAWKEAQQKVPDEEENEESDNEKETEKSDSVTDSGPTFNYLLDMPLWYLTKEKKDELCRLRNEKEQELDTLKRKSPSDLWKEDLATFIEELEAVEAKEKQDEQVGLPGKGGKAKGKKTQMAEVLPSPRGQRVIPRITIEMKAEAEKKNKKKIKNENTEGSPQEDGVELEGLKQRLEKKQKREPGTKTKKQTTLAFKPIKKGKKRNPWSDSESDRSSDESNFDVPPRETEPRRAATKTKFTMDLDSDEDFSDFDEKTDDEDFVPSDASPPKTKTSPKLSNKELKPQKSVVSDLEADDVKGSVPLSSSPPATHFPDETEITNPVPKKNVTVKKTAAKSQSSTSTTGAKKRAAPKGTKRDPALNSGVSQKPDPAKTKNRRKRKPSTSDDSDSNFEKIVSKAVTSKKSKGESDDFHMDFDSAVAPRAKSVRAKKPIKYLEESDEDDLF

On to `CCCc1nnc2c3ccccc3c(N/N=C/c3ccc([N+](=O)[O-])cc3)nn12`, for which the results for the IC50 (in test [1]; in the test on Calf thymus DNA) were 7.02 µM and 26.2 µM, respectively.
Consider `O=C(N/N=C/c1ccncc1)c1cccc2c(=O)c3ccccc3[nH]c12`, for which the IC50 was 2.26 µM in test [2] and 0.48 µM in the test on HL-60.
As to `O=C(NNC(=O)c1ccc(Nc2nc3ccccc3n3cnnc23)cc1)NC1CCCCC1`, in the test on Calf thymus DNA, the IC50 turned out to be 25.3 µM.
